In patent publication US20240391948A1, “NOVEL COMPOUND THAT INHIBITS TNF-ALPHA GENERATION AND INFLAMMASOME ACTIVITY AND PREPARATION METHOD THEREFOR” (SHAPERON INC., priority 2021, published 2024):

Key:
Type in all cases: cell-based
[1] = test system: J774A.1 (Mouse BALB/c monocyte macrophage cell line) cells; experiment: LPS-induced TNF-α secretion inhibition in J774A.1 cells; conditions: J774.A1, 1 μM compound, graded compared to taurodeoxycholic acid (positive control), read-out: TNF-α production inhibition grade
Protocol: (§1) To evaluate anti-inflammatory efficacy, an inflammatory response was induced in J774A.1 (Mouse BALB/c monocyte macrophage cell line) cells derived from mouse macrophages by LPS (lipopolysaccharide) and LPS+ATP (adenosine triphosphate), and the efficacy of taurine-bile acid derivatives to inhibit the production of inflammatory cytokines (IL-1β, TNF-α) was measured. After treating J774A.1 cells with 1 μM of a taurine-bile acid derivative, the degree to which the secretion of TNF-α among cytokines was suppressed was measured in the experimental group in which an inflammatory response was induced by LPS, and the extent to which IL-1β secretion among cytokines was suppressed was measured in the experimental group in which an inflammatory response was induced with LPS+ATP. The ability of taurine-bile acid derivatives to inhibit cytokine production was graded compared to taurodeoxycholic acid, a positive control. The grading criteria are A: over 100%, B: over 50% and under 100%, C: between 20% and under 50%, and D: under 20%.

[2] = test system: J774A.1 (Mouse BALB/c monocyte macrophage cell line) cells; experiment: LPS+ATP-induced IL-1β secretion inhibition in J774A.1 cells; conditions: J774.A1, 1 μM compound, graded compared to taurodeoxycholic acid (positive control), read-out: IL-1β production inhibition grade
Protocol: as §1

[3] = test system: U937 cells (human monocytic cell line); experiment: Pam2CSK4-induced TNF-α secretion inhibition in PMA-differentiated U937 cells; conditions: U-937, U937 cells differentiated with PMA, read-out: TNF-α production inhibition grade (IC50)
Protocol: (§2) To evaluate anti-inflammatory efficacy, U937 cells (human monocytic cell line) were differentiated into macrophages using PMA (phorbol 12-myristate 13-acetate) and then induced an inflammatory response with Pam2CSK4 (Pam2CysSerLys4) or BzATP (2′(3′)—O-(4-Benzoylbenzoyl)adenosine 5′-triphosphate), the efficacy of taurine-bile acid derivatives in suppressing inflammatory cytokine (IL-1β, TNF-α) production was measured.
(§3) Using PMA, U937 cells were differentiated into macrophages, and the extent of TNF-α secretion inhibition was measured in an experimental group where taurine-bile acid derivatives was treated, followed by induction of inflammatory response with Pam2CSK4, and in the experimental group in which an inflammatory response was induced with BzATP, the extent to which IL-1β secretion among cytokines was suppressed was measured.
(§4) The ability of taurine-bile acid derivatives to inhibit cytokine production was expressed in terms of IC50 (μM) values. The standards for TNF α inhibition ability are A: less than 0.5, B: 0.5 to less than 1.0, C: 1.0 to less than 2.0, D: 2.0 or more, and the IL-1β inhibition ability grade standards are A: less than 0.05, B: 0.05 to less than 0.10, C: 0.10 or more and less than 0.20, D: 0.20 or more.

[4] = test system: U937 cells (human monocytic cell line); experiment: BzATP-induced IL-1β secretion inhibition in PMA-differentiated U937 cells; conditions: U-937, U937 cells differentiated with PMA, read-out: IL-1β production inhibition grade (IC50)
Protocol: as §2, §3, §4

Structure (SMILES) | inhibition at 1 µM [1] [%] | inhibition at 1 µM [2] [%] | IC50 [3] [nM] | IC50 [4] [nM]
C[C@H](CCC(=O)NCS(=O)(=O)O)[C@H]1CC[C@H]2[C@@H]3CC[C@@H]4C[C@H](O)CC[C@]4(C)[C@H]3C[C@H](O)[C@]12C [NC10001] | < 20 | > 100 | ≥ 2000 | < 50
C[C@H](CCC(=O)NCCCS(=O)(=O)O)[C@H]1CC[C@H]2[C@@H]3CC[C@@H]4C[C@H](O)CC[C@]4(C)[C@H]3C[C@H](O)[C@]12C [NC10002] | > 100 | > 100 | < 500 | < 50
C[C@H](CCC(=O)Nc1ccc(S(=O)(=O)O)cc1)[C@H]1CC[C@H]2[C@@H]3CC[C@@H]4C[C@H](O)CC[C@]4(C)[C@H]3C[C@H](O)[C@]12C [NC10003] | > 100 | > 100 | < 500 | < 50
C[C@H](CCC(=O)N(CCS(=O)(=O)O)C1CCCCC1)[C@H]1CC[C@H]2[C@@H]3CC[C@@H]4C[C@H](O)CC[C@]4(C)[C@H]3C[C@H](O)[C@]12C [NC10004] | 20 to 50 | 50 to 100 | ≥ 2000 | ≥ 200
C[C@H](CCC(=O)N(CCS(=O)(=O)O)CC(N)=O)[C@H]1CC[C@H]2[C@@H]3CC[C@@H]4C[C@H](O)CC[C@]4(C)[C@H]3C[C@H](O)[C@]12C [NC10005] | < 20 | 20 to 50 | 1000 to 2000 | 100 to 200
C[C@H](CCC(=O)N(C)CCS(=O)(=O)O)[C@H]1CC[C@H]2[C@@H]3CC[C@@H]4C[C@H](O)CC[C@]4(C)[C@H]3C[C@H](O)[C@]12C [NC10006] | < 20 | 50 to 100 | 500 to 1000 | ≥ 200
C[C@H](CCC(=O)NCCCO)[C@H]1CC[C@H]2[C@@H]3CC[C@@H]4C[C@H](O)CC[C@]4(C)[C@H]3C[C@H](O)[C@]12C [NC10021] | – | – | 1000 to 2000 | 50 to 100
C[C@H](CCC(=O)N(CCS(=O)(=O)O)C1CCOCC1)[C@H]1CC[C@H]2[C@@H]3CC[C@@H]4C[C@H](O)CC[C@]4(C)[C@H]3C[C@H](O)[C@]12C [NC10025] | – | – | 1000 to 2000 | 50 to 100
C[C@H](CCC(=O)N[C@H](CS(=O)(=O)O)c1ccccc1)[C@H]1CC[C@H]2[C@@H]3CC[C@@H]4C[C@H](O)CC[C@]4(C)[C@H]3C[C@H](O)[C@]12C [NC10034] | – | – | 500 to 1000 | 50 to 100
C[C@H](CCC(=O)N(CCS(=O)(=O)O)Cc1cccnc1)[C@H]1CC[C@H]2[C@@H]3CC[C@@H]4C[C@H](O)CC[C@]4(C)[C@H]3CC[C@]12C [NC10092] | – | – | ≥ 2000 | 50 to 100
C[C@H](CCC(=O)N(CCS(=O)(=O)O)c1ccccc1)[C@H]1CC[C@H]2[C@@H]3CC[C@@H]4C[C@H](O)CC[C@]4(C)[C@H]3CC[C@]12C [NC10093] | – | – | ≥ 2000 | 100 to 200
C[C@H](CCC(=O)NCCCO)[C@H]1CC[C@H]2[C@@H]3[C@H](O)C[C@@H]4C[C@H](O)CC[C@]4(C)[C@H]3C[C@H](O)[C@]12C [NC20003] | 50 to 100 | 20 to 50 | – | 50 to 100
C[C@H](CCC(=O)N(CCS(=O)(=O)O)Cc1ccccc1)[C@H]1CC[C@H]2[C@@H]3CC[C@@H]4CC(=O)CC[C@]4(C)[C@H]3CC[C@]12C [NC30005] | – | – | 500 to 1000 | ≥ 200
CC(C)N(CCS(=O)(=O)O)C(=O)CC[C@@H](C)[C@H]1CC[C@H]2[C@@H]3CC[C@@H]4CC(=O)CC[C@]4(C)[C@H]3CC[C@]12C [NC30007] | – | – | < 500 | ≥ 200
C[C@H](CCC(=O)N1CCC[C@H]1CS(=O)(=O)O)[C@H]1CC[C@H]2[C@@H]3CC[C@@H]4CC(=O)CC[C@]4(C)[C@H]3CC[C@]12C [NC30021] | – | – | 500 to 1000 | 50 to 100
C[C@H](CCC(=O)N[C@@H](CO)CS(=O)(=O)O)[C@H]1CC[C@H]2[C@@H]3CC[C@@H]4CC(=O)CC[C@]4(C)[C@H]3CC[C@]12C [NC30024] | – | – | 1000 to 2000 | ≥ 200
C[C@H](CCC(=O)N[C@@H]1CCCC[C@@H]1S(=O)(=O)O)[C@H]1CC[C@H]2[C@@H]3CC[C@@H]4CC(=O)CC[C@]4(C)[C@H]3CC[C@]12C [NC30026] | – | – | < 500 | ≥ 200
C[C@H](CCC(=O)NC1(CS(=O)(=O)O)CC1)[C@H]1CC[C@H]2[C@@H]3CC[C@@H]4CC(=O)CC[C@]4(C)[C@H]3CC[C@]12C [NC30032] | – | – | 500 to 1000 | ≥ 200
C[C@H](CCC(=O)N(CCS(=O)(=O)O)Cc1cccnc1)[C@H]1CC[C@H]2[C@@H]3CC[C@@H]4CC(=O)CC[C@]4(C)[C@H]3CC[C@]12C [NC30036] | – | – | 1000 to 2000 | ≥ 200
CC[C@H]1[C@@H](O)[C@@H]2[C@H](CC[C@]3(C)[C@@H]([C@H](C)CCC(=O)NCCCO)CC[C@@H]23)[C@@]2(C)CC[C@@H](O)C[C@@H]12 [NC40003] | – | – | ≥ 2000 | ≥ 200
CC[C@H]1[C@@H](O)[C@@H]2[C@H](CC[C@]3(C)[C@@H]([C@H](C)CCC(=O)N(CCS(=O)(=O)O)Cc4ccccc4)CC[C@@H]23)[C@@]2(C)CC[C@@H](O)C[C@@H]12 [NC40005] | – | – | ≥ 2000 | ≥ 200
CC[C@H]1[C@@H](O)[C@@H]2[C@H](CC[C@]3(C)[C@@H]([C@H](C)CCC(=O)N[C@H](CS(=O)(=O)O)C(C)C)CC[C@@H]23)[C@@]2(C)CC[C@@H](O)C[C@@H]12 [NC40016] | – | – | 500 to 1000 | ≥ 200
CC[C@H]1[C@@H](O)[C@@H]2[C@H](CC[C@]3(C)[C@@H]([C@H](C)CCC(=O)N[C@@H]4CCCC[C@@H]4S(=O)(=O)O)CC[C@@H]23)[C@@]2(C)CC[C@@H](O)C[C@@H]12 [NC40026] | – | – | 500 to 1000 | 50 to 100
CC[C@H]1[C@@H](O)[C@@H]2[C@H](C[C@H](O)[C@]3(C)[C@@H]([C@H](C)CCC(=O)NCCC(=O)O)CC[C@@H]23)[C@@]2(C)CC[C@@H](O)C[C@@H]12 [NC50002] | – | – | ≥ 2000 | ≥ 200
CC[C@H]1[C@@H](O)[C@@H]2[C@H](C[C@H](O)[C@]3(C)[C@@H]([C@H](C)CCC(=O)N(CCS(=O)(=O)O)Cc4ccccc4)CC[C@@H]23)[C@@]2(C)CC[C@@H](O)C[C@@H]12 [NC50005] | – | – | 1000 to 2000 | ≥ 200
CC[C@H]1[C@@H](O)[C@@H]2[C@H](C[C@H](O)[C@]3(C)[C@@H]([C@H](C)CCC(=O)N4CCC[C@H](S(=O)(=O)O)C4)CC[C@@H]23)[C@@]2(C)CC[C@@H](O)C[C@@H]12 [NC50009] | – | – | 1000 to 2000 | 100 to 200
CC[C@H]1[C@@H](O)[C@@H]2[C@H](C[C@H](O)[C@]3(C)[C@@H]([C@H](C)CCC(=O)N4CCC(S(=O)(=O)O)CC4)CC[C@@H]23)[C@@]2(C)CC[C@@H](O)C[C@@H]12 [NC50011] | – | – | ≥ 2000 | ≥ 200
CC[C@H]1[C@@H](O)[C@@H]2[C@H](C[C@H](O)[C@]3(C)[C@@H]([C@H](C)CCC(=O)N[C@@H](Cc4ccccc4)CS(=O)(=O)O)CC[C@@H]23)[C@@]2(C)CC[C@@H](O)C[C@@H]12 [NC50014] | – | – | 500 to 1000 | < 50
CC[C@H]1[C@@H](O)[C@@H]2[C@H](C[C@H](O)[C@]3(C)[C@@H]([C@H](C)CCC(=O)N[C@@H](CS(=O)(=O)O)C(C)C)CC[C@@H]23)[C@@]2(C)CC[C@@H](O)C[C@@H]12 [NC50017] | – | – | 1000 to 2000 | 50 to 100
CC[C@H]1[C@@H](O)[C@@H]2[C@H](C[C@H](O)[C@]3(C)[C@@H]([C@H](C)CCC(=O)NC[C@@H](C)S(=O)(=O)O)CC[C@@H]23)[C@@]2(C)CC[C@@H](O)C[C@@H]12 [NC50023] | – | – | ≥ 2000 | ≥ 200
